Source: PMC3259047 (Molecular Neurodegeneration, 2011)
Read-outs that look alike come from different tables or passages of the source.

Experiments:
[1] = molecular target: CAA deposits (cerebrovascular Aβ aggregates) (Homo sapiens, UniProt P05067); experiment: In situ saturation binding assay in fixed Tg2576 brain sections, fluorescence on CAA; design: species or system Tg2576 mice; conditions: 16 month-old Tg2576 fixed brain sections, intrinsic fluorescence, 30 min room temperature; read-out: Amyloid binding affinity (KD) on CAA (converted)
Description: (§1) Figure 5 In situ binding assay in Tg2576 brain sections. Sixteen month-old Tg2576 mice were perfused with PBS and brains were post-fixed in 4% paraformaldehyde. Coronal brain sections (40 μm thick) were washed three times with PBS and incubated with various concentrations of test compounds (4 sections/concentration; 6 concentrations/compound) at room temperature for 30 min. Brain sections were washed twice with PBS and 50% ethanol in PBS then cover-slipped. […] Scale bar: 100 μm. Fluorescent images of the sensorimotor cortex were taken and the fluorescent intensity on CAA (B) and neuritic plaques (C) was quantified. Saturation binding curves were plotted to obtain the binding affinity (KD) values (see Table 2).

[2] = system: cerebrovascular Aβ deposits and neuritic plaques; experiment: Fluorescent staining of fixed aged Tg2576 brain sections; format: binding; conditions: fixed brain sections of aged Tg2576 mice; 1 μM resorufin, 2 μM methoxy-X34
Description: Scale bars in A-D: 100 μm.
Tg2576 and littermate wild-type mice at 12-16 months of age were anesthetized with isoflurane and transcardially perfused with PBS. Brains were removed, post-fixed overnight in 4% paraformaldehyde in 0.1 M phosphate buffer (pH 7.4) at 4°C, and preserved in 30% sucrose in 0.1 M phosphate buffer at 4°C. Brains were sectioned coronally (40 μm) on a freezing sliding microtome as described previously. […] Brain sections were washed three times with PBS and once with 50% ethanol in PBS for 5 min each. After three more PBS washes, brain sections were mounted on a slide glass and cover-slipped with Vectashield mounting media (Vector laboratories, Burlingame, CA). Fluorescent staining was visualized using a Nikon Eclipse ME600 digital video microscopy system (Nikon Instruments Inc., Melville, NY) and MetaMorph imaging software (Molecular Devices, Sunnyvale, CA). Cross-sectional area covered by CAA vessels and parenchymal plaques were quantified using ImageJ software (National Institutes of Health, Bethesda, MD) as previously described.

[3] = molecular target: T1, neuritic plaques (Homo sapiens, UniProt P05067); experiment: In situ saturation binding assay in fixed Tg2576 brain sections, fluorescence on neuritic plaques; design: species or system Tg2576 mice; conditions: 16 month-old Tg2576 fixed brain sections, intrinsic fluorescence, 30 min room temperature; read-out: Amyloid binding affinity (KD) on neuritic plaques
T1 construct: Aβ1-42 (the predominant species in neuritic plaques); from tissue; host or cells: brain of 16-month-old Tg2576 transgenic mice
Description: as §1

[4] = Octanol-water partition coefficient (logPoct) by fluorometry; format: physicochemical; conditions: n-octanol/distilled water, 100 μM, room temperature, mean ± S.E.M, three independent experiments
Description: Octanol-water partition coefficients (logPoct) were determined as described previously with modification. […] The samples were incubated at room temperature with a brief vortex every 5 min for 60 minutes. After centrifugation at 2,000 g for 10 min, octanol and water layers were separately transferred to microcentrifuge tubes. Concentrations were determined by fluorometry at an excitation wave length of 530/25 nm and an emission wave length of 590/30 nm using an ELISA reader (Biotek, Winooski, VT).

[5] = design: method as in Klunk et. al. [51]; conditions: ref Klunk et. al. [51]; cited from earlier work
[6] = system: CAA deposits
[7] = system: 3D6-positive cerebral arterioles and neuritic plaques; experiment: Fluorescent staining of paraffin-embedded human AD brain sections (3D6 co-labeling); format: binding; conditions: human AD cortical sections, 1 μM resorufin
[8] = system: CAA amyloid deposits and neuritic plaques; experiment: In vivo live imaging through closed cranial window in aged Tg2576 mice; conditions: 6 mg/kg i.p. per legend and methods

T1 sequence (P05067 672-713 limits assumed): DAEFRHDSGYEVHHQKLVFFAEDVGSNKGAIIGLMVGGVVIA
CAA deposits (cerebrovascular Aβ aggregates), sequence (P05067 672-711 limits assumed): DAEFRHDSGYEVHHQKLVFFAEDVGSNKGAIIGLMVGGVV

Compound: CCOc1ccc2nc3ccc(=O)cc-3oc2c1 [Ethoxyresorufin, ethoxy-resorufin]
- Kd [1]: 247 ± 135 nM
- Binding to CAA-laden vessels versus neuritic plaques (fluorescent staining) [2]: preferentially bound CAA-laden vessels but not neuritic plaques
- Kd [3]: > 10000 nM
- logP [4]: 1.94 ± 0.137
- logPoct [4]: 1.94

Compound: COc1cc(C=Cc2ccc(O)c(C(=O)O)c2)ccc1C=Cc1ccc(O)c(C(=O)O)c1 [Methoxy-X34, reference compound]
- Kd [1]: 325 nM
- Binding to CAA-laden vessels versus neuritic plaques (fluorescent staining) [2]: visualized both cerebrovascular Aβ deposits and neuritic plaques
- Kd [3]: 219 nM
- logPoct [5]: 0.19

Compound: O=c1ccc2nc3ccc(O)cc3oc-2c1 [Resorufin, 7-hydroxy-3H-phenoxazin-3-one]
- Visualization of CAA deposits after intravenous administration ([6]; i.v. up to 50 mg/kg, aged Tg2576 mice (15 mo)): failed to visualize CAA deposits
- Crossing of the BBB ([6]; mouse, in vivo): failed to cross the BBB
- Binding to CAA-laden vessels versus neuritic plaques (fluorescent staining) [2]: strongly bind CAA-laden cerebral arterioles but not parenchymal neuritic plaques
- Staining of 3D6-positive amyloid deposits [7]: marked resorufin-positive staining was noted in the 3D6-positive cerebral arterioles
- logP [4]: 0.427 ± 0.036
- logPoct [4]: 0.43

Compound: O=c1ccc2nc3ccc(OCc4ccccc4)cc3oc-2c1 [Benzyloxyresorufin, benzyloxy-resorufin]
- Kd [1]: 473 ± 82 nM
- Binding to CAA-laden vessels versus neuritic plaques (fluorescent staining) [2]: preferentially bound CAA-laden vessels but not neuritic plaques
- Kd [3]: > 10000 nM
- logPoct [4]: 2.206 ± 0.104
- logPoct ([4]; listed as benzyloxy-resorufin): 2.21

Compound: COc1cc(/C=C/c2ccc(O)cc2)ccc1/C=C/c1ccc(O)cc1 [methoxy-X04]
- Live fluorescent labeling of amyloid deposits by methoxy-X04 [8]: labeled Aβ aggregates in both cerebral arteries and parenchymal neuritic plaques
